Reference: ChEMBL document CHEMBL1153314, “[2-(4-Phenyl-4-piperidinyl)ethyl]amine based CCR5 antagonists: derivatizations at the N-terminal of the piperidine ring” (Bioorg Med Chem Lett, 2009)

Columns and labels:
in vivo [1] = conditions: rat, 1 mg/kg
in vivo [2] = conditions: rat, po, 1 mg/kg
in vivo [3] = conditions: rat, 1 mg/kg; remark: listed apart in the source
in vivo [4] = conditions: rat, 1 mg/kg; remark: listed apart in the source

Row | Structure (SMILES) | Vd (in vivo [1]) [L/kg] | bioavailability (in vivo [2]) [%] | clearance (in vivo [3]) [mL/min/kg] | half-life (in vivo [4]) [h]
1 | Cc1nc2ccccc2n1[C@H]1C[C@H]2CC[C@@H](C1)N2CCC1(c2ccccc2)CCN(C(C(=O)O)c2ccccc2)CC1 (some centres not stated) | 3.5 | 0 | 117 | 
2 | CNC(=O)C(c1ccc(F)cc1)N1CCC(CCN2[C@@H]3CC[C@H]2C[C@@H](n2c(C)nc4ccccc42)C3)(c2cccc(F)c2)CC1 (some centres not stated) | 16.5 | 37 | 43 | 6.1
